The source of these data is patent US10307407B2, “9H-pyrimido [4,5-B] indoles as BET bromodomain inhibitors” (THE REGENTS OF THE UNIVERSITY OF MICHIGAN, priority 2015, dated 2019).

The term IC50 denotes the concentration needed to halve the response being measured.

In assay [1] the target is T1, recombinant BRD4 BD1 (Homo sapiens, UniProt O60885).
T1 construct: recombinant BRD4 BD1 and BRD4 BD2 proteins
The experiment in a line: Competitive fluorescence-polarization (FP) binding assay, BRD4 BD1. The conditions noted are these: FAM labeled probe 1.5 nM, protein 10 nM, pH 6.5. Here is the method:
(§1) Fluorescence Polarization (FP) competitive binding studies were carried out using a FAM labeled fluorescent probe (ZBA248 or BRD-1F) to determine binding affinities of representative Compounds of the Disclosure for recombinant BRD4 BD1 and BRD4 BD2 proteins. For example, equilibrium dissociation constants (Kd) values of ZBA248 to these six proteins were determined from protein saturation experiments by monitoring the total fluorescence polarization of mixtures composed with the fluorescent probe at a fixed concentration and proteins with increasing concentrations up to full saturation. Serial dilutions of testing protein were mixed with ZBA248 to a final volume of 200 μl in the assay buffer. In order to achieve large dynamic rages, particularly for BD1 bromodomains, 100 mM phosphate buffer (pH=6.5, 0.01% Triton X-100 (Sigma, 282103) being added right before assays) was used as the assay buffer. Final ZBA248 concentration was 1.5 nM for all proteins. Plates were incubated at room temperature for 30 minutes with gentle shaking to assure equilibrium. FP values in millipolarization units (mP) were measured using the Infinite M-1000 plate reader (Tecan U.S., Research Triangle Park, N.C.) in Microfluor 1 96-well, black, round-bottom plates (Thermo Scientific, Waltham, Mass.) at an excitation wavelength of 485 nm and an emission wavelength of 530 nm. Kd values of ZBA248 were calculated by fitting the sigmoidal dose-dependent FP increases as a function of protein concentrations using Graphpad Prism 6.0 software (Graphpad Software, San Diego, Calif.).
(§2) The IC50 and Ki values of representative Compounds of the Disclosure were determined in a competitive binding experiment as described above. Mixtures of 10 μl of the tested compounds in assay buffer with 40% Ethylene Glycol and 190 μl of preincubated protein/probe complex solution in the assay buffer (100 mM potassium phosphate, pH 6.5, 0.01% Triton X-100) were added into assay plates which were incubated at room temperature for 30 minutes with gentle shaking. Final concentrations of proteins were 10 and 6 nM in assays for BD1 and BD2 of BRD4, respectively. Final probe concentration is 1.5 nM in all assays. Negative controls containing protein/probe complex only (equivalent to 0% inhibition), and positive controls containing only free probes (equivalent to 100% inhibition), were included in each assay plate. FP values were measured as described above. IC50 values were determined by nonlinear regression fitting of the competition curves. Instead of being calculated from IC50 values as described before, Ki values of competitive inhibitors were obtained directly by nonlinear regression fitting as well, based upon the Kd values of the probe to different proteins, and concentrations of the proteins and probes in the competitive assays (Wang, FEBS Lett. 360; 111 (1995); Zhang et al., Analytical Biochemistry, 331; 138 (2004)).
(§3) Binding affinities of representative Compounds of the Disclosure to BRD4 BD1 and BRD4 BD2 proteins in competitive, fluorescence-polarization assays are presented in Table 2.

For assay [2], the target named is T2, recombinant BRD4 BD2 (Homo sapiens, UniProt O60885).
T2 construct: recombinant BRD4 BD1 and BRD4 BD2 proteins
The experiment in a line: Competitive fluorescence-polarization (FP) binding assay, BRD4 BD2. To be noted: FAM labeled probe 1.5 nM, protein 6 nM, pH 6.5. As for the experimental part:
as §1, §2, §3

Molecules are shown by their SMILES.

As for `COc1cc2c(cc1Br)[nH]c1ncnc(Nc3cc(C4CC4)nn3C)c12` [Cpd. No. 1, 7-Bromo-N-(3-cyclopropyl-1-methyl-1H-pyrazol-5-yl)-6-methoxy-9H-pyrimido[4,5-b]indol-4-amine], the IC50 in assay [1] and in assay [2] was more than 1000 nM each time.
Regarding `COc1cc2c(cc1-c1c(C)noc1C)[nH]c1nc(C)nc(Nc3cc(C4CC4)nn3-c3ccc(C(=O)O)cc3)c12` [Cpd. No. 10, 4-(3-Cyclopropyl-5-((7-(3,5-dimethylisoxazol-4-yl)-6-methoxy-2-methyl-9H-pyrimido[4,5-b]indol-4-yl)amino)-1H-pyrazol-1-yl)benzoic acid], the IC50 in assay [1] is 54 nM; in assay [2] it was 75.2 nM.
Taken in the same sequence, the figures for `COc1cc2c(cc1-c1c(C)n[nH]c1C)[nH]c1ncnc(Nc3cc(C4CC4)nn3C)c12` [Cpd. No. 11, N-(3-cyclopropyl-1-methyl-1H-pyrazol-5-yl)-7-(3,5-dimethyl-1H-pyrazol-4-yl)-6-methoxy-9H-pyrimido[4,5-b]indol-4-amine] were 103 nM and 91.5 nM.
Taken in the same sequence, the figures for `COc1cc2c(cc1-c1c(C)noc1C)[nH]c1nc(C)nc(Nc3cc(C4CC4)nn3-c3cnn(C)c3)c12` [Cpd. No. 12, N-(3-Cyclopropyl-1′-methyl-1′H-[1,4′-bipyrazol]-5-yl)-7-(3,5-dimethylisoxazol-4-yl)-6-methoxy-2-methyl-9H-pyrimido[4,5-b]indol-4-amine] were 18.2 nM and 12.1 nM.
For `COc1cc2c(cc1-c1c(C)noc1C)[nH]c1nc(C)nc(Nc3cc(C4CC4)n(-c4cnn(C)c4)n3)c12` [Cpd. No. 13, N-(5-Cyclopropyl-1′-methyl-1′H-[1,4′-bipyrazol]-3-yl)-7-(3,5-dimethylisoxazol-4-yl)-6-methoxy-2-methyl-9H-pyrimido[4,5-b]indol-4-amine], the IC50 in assay [1] turned out to be 59.7 nM; in assay [2] it was 34.3 nM.
As to `COc1cc2c(cc1-c1c(C)noc1C)[nH]c1nc(C)nc(Nc3cc(C4CC4)nn3-c3cn(C)cn3)c12` [Cpd. No. 14, N-(3-Cyclopropyl-1-(1-methyl-1H-imidazol-4-yl)-1H-pyrazol-5-yl)-7-(3,5-dimethylisoxazol-4-yl)-6-methoxy-2-methyl-9H-pyrimido[4,5-b]indol-4-amine], the IC50 in assay [1] stood at 141 nM; in assay [2], 19.7 nM.
For `COc1cc2c(cc1-c1c(C)nn(C)c1C)[nH]c1ncnc(Nc3cc(C4CC4)nn3C)c12` [Cpd. No. 21, N-(3-Cyclopropyl-1-methyl-1H-pyrazol-5-yl)-6-methoxy-7-(1,3,5-trimethyl-1H-pyrazol-4-yl)-9H-pyrimido[4,5-b]indol-4-amine], the half-inhibitory concentration (IC50) in assay [1] and in assay [2] was more than 1000 nM each time.
